Data set [1] addresses Delta-type opioid receptor (Cricetulus griseus) (UniProt G3H1Y1). Briefly: Displacement of [3H]DADLE from delta opioid receptor in CHO cells at 10 uM after 120 mins relative to control. The format is cell-based.
The species named for data set [2] is Rattus norvegicus. Briefly: Inhibition of UDP-glucuronosyltransferase in Sprague-Dawley rat liver microsomes assessed as morphine conversion to M6G after 30 mins by HPLC analysis.
A short description of data set [3]: (§1) Inhibition of UDP-glucuronosyltransferase in Sprague-Dawley rat liver microsomes assessed as morphine conversion to M3G after 30 mins by HPLC analysis.
The species entered for data set [4] is Rattus norvegicus. Described as §1.
Data set [5] addresses Mu-type opioid receptor (Homo sapiens) (UniProt P35372). The conditions noted are these: HEK293, at 1 µM.
Description: Displacement of [3H]diprenorphine from mu opioid receptor in HEK293 cells at 1 uM after 120 mins relative to control
Data set [6] is filed under the species Rattus norvegicus. Briefly: Activity at UDP-glucuronosyltransferase in Sprague-Dawley rat liver microsomes assessed as morphine conversion to M3G at 1 uM by Michaelis-Menten plot analysis.
Data set [7] in a line: Clearance in Sprague-Dawley rat liver microsomes at 1 uM. The format is ADME. The settings on record: read-out: CLH.
The species entered for data set [8] is Rattus norvegicus. Briefly: Activity at UDP-glucuronosyltransferase in Sprague-Dawley rat liver microsomes assessed as morphine conversion to M3G at 50 uM by Michaelis-Menten plot analysis.
In data set [9] the target is Mu-type opioid receptor (Homo sapiens) (UniProt P35372). The conditions noted are these: HEK293, at 10 µM.
Description: Displacement of [3H]diprenorphine from mu opioid receptor in HEK293 cells at 10 uM after 120 mins relative to control
The target in data set [10] is Delta-type opioid receptor (Cricetulus griseus) (UniProt G3H1Y1). Briefly: Displacement of [3H]DADLE from delta opioid receptor in CHO cells at 1 uM after 120 mins relative to control. The format is cell-based.
Data set [11] concerns Hepatocyte. Briefly: Inhibition of UDP-glucuronosyltransferase in Sprague-Dawley rat hepatocytes assessed as morphine conversion to M3G at 5 to 40 uM incubated for 72 hrs prior to substrate addition measured after 2 hrs by HPLC analysis. The format is cell-based.
The nature of data set [12]: Clearance in Sprague-Dawley rat liver microsomes at 10 uM. The format is ADME. The conditions noted are these: read-out: CLH.
The nature of data set [13]: Clearance in Sprague-Dawley rat liver microsomes at 2.5 uM. The format is ADME. The settings on record: read-out: CLH.
The target in data set [14] is Kappa-type opioid receptor (Cricetulus griseus) (UniProt G3HZR5). In words: Displacement of [3H]U-69593 from kappa opioid receptor in CHO cells at 1 uM after 120 mins relative to control. The format is cell-based.
Data set [15] is filed under the species Rattus norvegicus. In words: Activity at UDP-glucuronosyltransferase in Sprague-Dawley rat liver microsomes assessed as morphine conversion to M3G at 5 uM by Michaelis-Menten plot analysis.
The species entered for data set [16] is Rattus norvegicus. Briefly: Activity at UDP-glucuronosyltransferase in Sprague-Dawley rat liver microsomes assessed as morphine conversion to M3G at 10 uM by Michaelis-Menten plot analysis.
Data set [17] can be described thus: Clearance in Sprague-Dawley rat liver microsomes at 50 uM. The format is ADME. The settings on record: read-out: CLH.
Data set [18] deals with Kappa-type opioid receptor (Cricetulus griseus) (UniProt G3HZR5). Briefly: Displacement of [3H]U-69593 from kappa opioid receptor in CHO cells at 10 uM after 120 mins relative to control. The format is cell-based.
For data set [19], the species on record is Rattus norvegicus. In words: Activity at UDP-glucuronosyltransferase in Sprague-Dawley rat liver microsomes assessed as morphine conversion to M3G at 2.5 uM by Michaelis-Menten plot analysis.
Data set [20] can be described thus: Clearance in Sprague-Dawley rat liver microsomes at 5 uM. The format is ADME. The conditions noted are these: read-out: CLH.
Data set [21] relates to Hepatocyte. In words: Inhibition of UDP-glucuronosyltransferase in Sprague-Dawley rat hepatocytes assessed as morphine conversion to M3G at 5 to 10 uM incubated for 72 hrs prior to substrate addition measured after 2 hrs by HPLC analysis. The format is cell-based.
The species named for data set [22] is Rattus norvegicus. Briefly: Inhibition of UDP-glucuronosyltransferase in Sprague-Dawley rat liver microsomes assessed as morphine conversion to M3G up to 50 uM after 30 mins by HPLC analysis relative to control.
The species entered for data set [23] is Rattus norvegicus. Briefly: Competitive inhibition of UDP-glucuronosyltransferase in Sprague-Dawley rat liver microsomes assessed as morphine conversion to M3G up to 5 uM by Lineweaver-Burk plot analysis.
The nature of data set [24]: Inhibition of UDP-glucuronosyltransferase in Sprague-Dawley rat hepatocytes assessed as morphine conversion to M3G incubated for 72 hrs prior to substrate addition measured after 2 hrs by HPLC analysis. The format is cell-based. The conditions noted are these: Hepatocyte.

Molecules are shown by their SMILES. Activity calls are given as the source filed them. The calls are words filed in the database; no cut-off is given here.

Mu-type opioid receptor (Homo sapiens), sequence (P35372 whole entry): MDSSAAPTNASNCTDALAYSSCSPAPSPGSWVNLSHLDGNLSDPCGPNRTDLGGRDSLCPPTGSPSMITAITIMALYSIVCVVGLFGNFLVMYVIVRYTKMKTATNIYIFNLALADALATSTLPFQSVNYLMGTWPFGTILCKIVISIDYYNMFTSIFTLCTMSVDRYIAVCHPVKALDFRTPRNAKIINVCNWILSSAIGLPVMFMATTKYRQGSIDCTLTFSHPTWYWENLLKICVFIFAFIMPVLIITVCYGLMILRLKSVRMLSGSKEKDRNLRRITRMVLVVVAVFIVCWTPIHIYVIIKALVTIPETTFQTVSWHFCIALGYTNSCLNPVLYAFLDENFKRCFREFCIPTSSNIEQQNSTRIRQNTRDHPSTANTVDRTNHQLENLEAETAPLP
Kappa-type opioid receptor (Cricetulus griseus), sequence (G3HZR5 as listed by the source): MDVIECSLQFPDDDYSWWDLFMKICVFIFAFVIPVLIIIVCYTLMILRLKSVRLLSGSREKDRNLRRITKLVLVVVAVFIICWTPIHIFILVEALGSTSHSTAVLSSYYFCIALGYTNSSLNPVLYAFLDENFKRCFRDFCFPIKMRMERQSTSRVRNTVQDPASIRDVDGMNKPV
Delta-type opioid receptor (Cricetulus griseus), sequence (G3H1Y1 as listed by the source): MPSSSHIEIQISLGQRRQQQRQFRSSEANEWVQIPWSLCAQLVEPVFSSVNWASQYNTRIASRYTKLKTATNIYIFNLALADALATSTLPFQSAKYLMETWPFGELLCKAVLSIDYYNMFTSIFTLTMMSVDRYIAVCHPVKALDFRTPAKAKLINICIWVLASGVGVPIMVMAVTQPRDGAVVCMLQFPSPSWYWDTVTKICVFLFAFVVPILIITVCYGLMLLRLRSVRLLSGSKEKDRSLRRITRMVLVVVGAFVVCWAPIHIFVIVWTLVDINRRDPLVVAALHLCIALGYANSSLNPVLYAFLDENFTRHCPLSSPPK

Turning to `COc1ccc2c3c1O[C@H]1[C@@H](OC(=O)C(C)(C)C)C=C[C@H]4[C@@H](C2)N(C)CC[C@@]341`, the inhibition is 90% in [1]; “Dose-dependent effect” in data set [4]; 20% in data set [5]; 38% in data set [9]; 57% in [10]; 6% in data set [14]. Besides, the inhibition in [18] amounted to 42%. Further, in data set [2], the inhibition entry was “inactive”. Moreover, in [3], the IC50 turned out to be 2.27 µM. Also, the Ki in [3] came out at 2.56 µM. Further, the Km is 0.13 µM in [6]; 0.62 µM in [8]; 0.36 µM in [15]; 0.72 µM in data set [16]; 0.22 µM in [19]. Moreover, the Vmax was determined as 7.03 nmol/min/mg in data set [6]; 3.95 nmol/min/mg in data set [8]; 4.53 nmol/min/mg in [15]; 4.63 nmol/min/mg in data set [16]; 6.28 nmol/min/mg in [19]. Besides, the microsomal CLint at 1 µM in [7] is 52.7 µL/min/mg. Also, the inhibition result in [11] is “Active”. For the same molecule, in data set [12], the microsomal CLint at 10 µM amounted to 6.88 µL/min/mg. For the same molecule, in data set [13], the microsomal CLint at 2.5 µM stood at 29.1 µL/min/mg. Also, the microsomal CLint at 50 µM in [17] was 6.54 µL/min/mg. In [20], the microsomal CLint at 5 µM stood at 12.7 µL/min/mg.
For the molecule `COc1ccc2c3c1O[C@H]1[C@@H](O)CC[C@H]4[C@@H](C2)N(C)CC[C@@]341`, the inhibition stood at 24% in [1]; 17% in [5]; 40% in data set [9]; 7% in [10]; 4% in data set [14]; 51% in [18]. In addition, the inhibition in [22] turned out to be 40%. In addition, the inhibition result in [2] and in data set [21] was “inactive” each time.
Consider `COc1ccc2c3c1O[C@H]1[C@@H](OC(C)=O)CC[C@H]4[C@@H](C2)N(C)CC[C@@]341`, for which the inhibition result in data set [2] and in data set [21] was “inactive” in each case. The inhibition in data set [5] was -2%; in data set [9] it was 5%; in [10], -10%; in [14], 3%; in data set [18] it was 13%. Also, in data set [22], the inhibition result is “Active”.
As for `COc1ccc2c3c1O[C@H]1[C@@H](O)C=C[C@H]4[C@@H](C2)N(C)CC[C@@]341` [CODEINE], the inhibition result in data set [2] and in data set [23] was “inactive” each time. Besides, the IC50 in data set [3] came out at 4.32 µM; in [24] it was 20.9 µM. In addition, the Ki in data set [3] came out at 6.9 µM. In [4], the inhibition entry is “Dose-dependent effect”. Also, the Km in data set [6] is 0.26 µM; in data set [8], 0.48 µM; in [15], 0.43 µM; in [16], 0.37 µM; in [19], 0.41 µM. Further, the Vmax in data set [6] is 12.5 nmol/min/mg; in data set [8], 4.06 nmol/min/mg; in data set [15], 8.04 nmol/min/mg; in data set [16] it was 4.41 nmol/min/mg; in data set [19], 12.4 nmol/min/mg. Further, the microsomal CLint at 1 µM in data set [7] was determined as 48 µL/min/mg. For the same molecule, the microsomal CLint at 10 µM in [12] was 11.9 µL/min/mg. Besides, in data set [13], the microsomal CLint at 2.5 µM was 31.1 µL/min/mg. Also, the microsomal CLint at 50 µM in data set [17] turned out to be 8.35 µL/min/mg. Besides, in data set [20], the microsomal CLint at 5 µM came out at 18.6 µL/min/mg.
In the case of `CN1CC[C@]23c4c5ccc(O)c4O[C@H]2[C@@H](O)C=C[C@H]3[C@H]1C5`, the inhibition in data set [1] came out at 95%; in data set [10], 72%; in data set [14], 95%; in [18], 100%.
For the molecule `CCCCCCCCCCCC(=O)O[C@H]1C=C[C@H]2[C@H]3Cc4ccc(OC)c5c4[C@@]2(CCN3C)[C@H]1O5`, the inhibition in [1] is 13%; in [5], 0%; in [9] it was 12%; in data set [10], -7%; in data set [14] it was 8%; in [18], 40%. Further, the inhibition entry in data set [2] is “inactive”. In addition, in [22], the inhibition result is “Active”.
Consider `COc1ccc2c3c1O[C@H]1[C@@H](OC(C)=O)C=C[C@H]4[C@@H](C2)N(C)CC[C@@]341`, for which the inhibition was 60% in data set [1]; “Dose-dependent effect” in data set [4]; 19% in data set [5]; 43% in [9]; 18% in data set [10]; 25% in [14]. In addition, the inhibition in data set [18] worked out at 66%. The inhibition entry in data set [2] and in data set [23] was “inactive” each time. Moreover, the IC50 in data set [3] was 3.25 µM. Moreover, the Ki in data set [3] was 5.17 µM. For the same molecule, the Km came out at 0.26 µM in [6]; 0.69 µM in data set [8]; 0.56 µM in data set [15]; 0.35 µM in data set [16]; 0.41 µM in [19]. The Vmax in [6] was 9.74 nmol/min/mg; in data set [8], 4.01 nmol/min/mg; in [15], 7.92 nmol/min/mg; in [16], 3.31 nmol/min/mg; in data set [19], 10.1 nmol/min/mg. Also, the microsomal CLint at 1 µM in [7] is 37.8 µL/min/mg. Besides, the inhibition result in data set [11] was “Active”. The microsomal CLint at 10 µM in data set [12] worked out at 9.38 µL/min/mg. Moreover, the microsomal CLint at 2.5 µM in [13] worked out at 24.7 µL/min/mg. In [17], the microsomal CLint at 50 µM amounted to 5.97 µL/min/mg. In [20], the microsomal CLint at 5 µM was 25 µL/min/mg.

For the origin of these results see ChEMBL document CHEMBL3091304 (Bioorg Med Chem, 2013).
